Measurements from patent US20260347319A1, “YAP/TAZ-TEAD ONCOPROTEINS INHIBITORS” (BridGene Biosciences, Inc., priority 2022, published 2026).
pIC50: −log10 of the molar value.

System: TEAD1
Experiment: MCF-7 TEAD1-luciferase reporter assay (MCF7-TEAD-Luc)
Type: cell-based
Details: MCF7 cells, overnight; for pIC50: Homo sapiens; for TEAD1-Luc MCF7: Max Inhibition: % of DMSO-treated control
Method: The ability of compounds to inhibit TEAD-dependent transcription was assessed in the MCF7-TEAD-Luc reporter assay (BPS #60618). Cells were seeded at 10,000 cells in 200 μL per well into white wall, clear bottom 96-well plates (Corning #3610) and incubated at 37° C. for 24 hours, then treated with serial diluted compounds overnight, and luciferase signal was measured using the ONE-Step Luciferase Assay System (BPS #60690) using an EnSight Multimode plate reader (PerkinElmer, model #MLDHH34000000, integration time 100 ms) with Kaleido 3.0. software. For data analysis, dose-dependent curves were plotted as “% inhibition” (% of DMSO-treated control wells), and were fitted by four-parametric model in GraphPad Prism to obtain IC50 values.

SMILES | pIC50 | TEAD1-Luc MCF7: Max Inhibition
C=CC(=O)N1CC[C@@](O)(C#Cc2ccc(C(F)(F)F)cc2)C1 (single isomer, unassigned) [Example 65, (R*)-1-(3-hydroxy-3-((4-(trifluoromethyl)phenyl)ethynyl)pyrrolidin-1-yl)prop-2-en-1-one] | 6.30 to 7.00 | A (A ≥ 75%)
C=CC(=O)N1CCC(/C=C\C(OC)c2ccc(C(F)(F)F)cc2)C1 (centres unmarked) [Example 101, (Z)-1-(3-(3-methoxy-3-(4-(trifluoromethyl)phenyl)prop-1-en-1-yl)pyrrolidin-1-yl)prop-2-en-1-one] | 6.30 to 7.00 | B (75% > B ≥ 50%)
C=CC(=O)N1CC[C@@](C#Cc2ccc(C(F)(F)F)cc2)(OC)C1 (single isomer, unassigned) [Example 58, (S*)-1-(3-methoxy-3-((4-(trifluoromethyl)phenyl)ethynyl)pyrrolidin-1-yl)prop-2-en-1-one] | ≥ 8.00 | B (75% > B ≥ 50%)
C=CC(=O)N1CC[C@](F)(C#Cc2ccc(C(F)(F)F)cc2)C1 (single isomer, unassigned) [Example 62, (S*)-1-(3-fluoro-3-((4-(trifluoromethyl)phenyl)ethynyl)pyrrolidin-1-yl)prop-2-en-1-one] | 7.00 to 8.00 | B (75% > B ≥ 50%)
C=CC(=O)N1CCC(/C=C/c2cccc(C(F)(F)F)c2)CC1 [Example 54, (E)-1-(4-(3-(trifluoromethyl)styryl)piperidin-1-yl)prop-2-en-1-one] | 6.30 to 7.00 | B (75% > B ≥ 50%)
C#CC(=O)N1CC(/C=C/c2ccc(C(F)(F)F)cc2)C1 [Example 78, (E)-1-(3-(4-(trifluoromethyl)styryl)azetidin-1-yl)prop-2-yn-1-one] | 6.30 to 7.00 | A (A ≥ 75%)
C=CC(=O)N1CCC(/C=C\Cc2ccc(C(F)(F)F)cc2)C1 (single isomer, unassigned) [Example 89, (Z)-1-(3-(3-(4-(trifluoromethyl)phenyl)prop-1-en-1-yl)pyrrolidin-1-yl)prop-2-en-1-one] | 7.00 to 8.00 | A (A ≥ 75%)
C=CC(=O)N1CCC(/C=C\C(C)(C)c2ccc(C(F)(F)F)cc2)C1 (single isomer, unassigned) [Example 91, (Z)-1-(3-(3-methyl-3-(4-(trifluoromethyl)phenyl)but-1-en-1-yl)pyrrolidin-1-yl)prop-2-en-1-one] | < 6.30 | B (75% > B ≥ 50%)
C=CC(=O)N1CC[C@H]([C@@H](O)/C=C/c2ccc(C(F)(F)F)cc2)C1 (single isomer, unassigned) [Example 103] | 6.30 to 7.00 | B (75% > B ≥ 50%)
C=CC(=O)N1CCC2(CC(c3ccc(C(F)(F)F)cc3)=CO2)C1 (single isomer, unassigned) [Example 98, 1-(3-(4-(trifluoromethyl)phenyl)-1-oxa-7-azaspiro[4.4]non-2-en-7-yl)prop-2-en-1-one] | < 6.30 | C (50% > C ≥ 2%)
C=CC(=O)N1C[C@H](C)[C@@H](/C=C/c2ccc(C(F)(F)F)cc2)C1 (stereo in doubt) [Example 40, 1-[(3R*,4R*)-3-methyl-4-{2-[4-(trifluoromethyl)phenyl]ethenyl}pyrrolidin-1-yl]prop-2-en-1-one] | < 6.30 | A (A ≥ 75%)
C=CC(=O)N1CCC(C#Cc2ccc(C(F)(F)F)cc2)CC1 [Example 80, 1-(4-((4-(trifluoromethyl)phenyl)ethynyl)piperidin-1-yl)prop-2-en-1-one] | 7.00 to 8.00 | A (A ≥ 75%)
C=CC(=O)N1CCC(/C=C/c2ccc(C(F)(F)F)cc2)(OC)C1 (centres unmarked) [Example 35, (E)-1-(3-methoxy-3-(4-(trifluoromethyl)styryl)pyrrolidin-1-yl)prop-2-en-1-one] | 7.00 to 8.00 | A (A ≥ 75%)
C=CC(=O)N1CCC(C/C=C/c2ccc(C(F)(F)F)cc2)CC1 [Example 90, (E)-1-(4-(3-(4-(trifluoromethyl)phenyl)allyl)piperidin-1-yl)prop-2-en-1-one] | 7.00 to 8.00 | B (75% > B ≥ 50%)
C=CC(=O)N1CC[C@@](O)(/C=C/c2ccc(C(F)(F)F)cc2)C1 (single isomer, unassigned) [Example 28, (R*,E)-1-(3-hydroxy-3-(4-(trifluoromethyl)styryl)pyrrolidin-1-yl)prop-2-en-1-one] | 7.00 to 8.00 | B (75% > B ≥ 50%)

Second part, led by results:

pIC50 | SMILES | TEAD1-Luc MCF7: Max Inhibition
7.00 to 8.00 | C=CC(=O)N1CCC(C#Cc2cccc(C(F)(F)F)c2)CC1 [Example 79, 1-(4-((3-(trifluoromethyl)phenyl)ethynyl)piperidin-1-yl)prop-2-en-1-one] | B (75% > B ≥ 50%)
≥ 8.00 | C=CC(=O)N1CCC(C)(C#Cc2ccc(C(F)(F)F)cc2)CC1 [Example 74, 1-(4-methyl-4-((4-(trifluoromethyl)phenyl)ethynyl)piperidin-1-yl)prop-2-en-1-one] | B (75% > B ≥ 50%)
7.00 to 8.00 | C=CC(=O)N1CC[C@@](F)(C#Cc2ccc(C(F)(F)F)cc2)C1 (single isomer, unassigned) [Example 63, (R*)-1-(3-fluoro-3-((4-(trifluoromethyl)phenyl)ethynyl)pyrrolidin-1-yl)prop-2-en-1-one] | A (A ≥ 75%)
7.00 to 8.00 | C=CC(=O)N1CC(/C=C/c2ccc(C(F)(F)F)cc2)C(n2cccn2)C1 (centres unmarked) [Example 70] | A (A ≥ 75%)
7.00 to 8.00 | C=CC(=O)N1CCC2(CC(/C=C/c3ccc(C(F)(F)F)cc3)C2)C1 (centres unmarked) [Example 106, (E)-1-(2-(4-(trifluoromethyl)styryl)-6-azaspiro[3.4]octan-6-yl)prop-2-en-1-one] | B (75% > B ≥ 50%)
7.00 to 8.00 | C=CC(=O)N1CCCC(C#Cc2cccc(C(F)(F)F)c2)C1 (centres unmarked) [Example 75, 1-(3-((3-(trifluoromethyl)phenyl)ethynyl)piperidin-1-yl)prop-2-en-1-one] | A (A ≥ 75%)
6.30 to 7.00 | C=CC(=O)N1CC(c2cc3ccc(C(F)(F)F)cc3n2C)C1 [Example 53, 1-{3-[1-methyl-6-(trifluoromethyl)indol-2-yl]azetidin-1-yl}prop-2-en-1-one] | B (75% > B ≥ 50%)
6.30 to 7.00 | C=CC(=O)N1CC2(CC=C(c3ccc(C(F)(F)F)cc3)C2)C1 [Example 48, 1-(6-(4-(trifluoromethyl)phenyl)-2-azaspiro[3.4]oct-6-en-2-yl)prop-2-en-1-one] | B (75% > B ≥ 50%)
6.30 to 7.00 | C=CC(=O)N1CC[C@H](/C=C\c2ccc(C(F)(F)F)cc2)C1 [Example 87, (R, Z)-1-(3-(4-(trifluoromethyl)styryl)pyrrolidin-1-yl)prop-2-en-1-one] | B (75% > B ≥ 50%)
≥ 8.00 | C=CC(=O)N1CC(C)(/C=C/c2cc(C(F)(F)F)on2)C1 [Example 16, 1-(3-methyl-3-(2-(5-(trifluoromethyl)isoxazol-3-yl)vinyl)azetidin-1-yl)prop-2-en-1-one] | A (A ≥ 75%)
≥ 8.00 | C=CC(=O)N1CC(F)(/C=C\c2cc(C(F)(F)F)on2)C1 [Example 8, (Z)-1-(3-fluoro-3-(2-(5-(trifluoromethyl)isoxazol-3-yl)vinyl)azetidin-1-yl)prop-2-en-1-one] | A (A ≥ 75%)
7.00 to 8.00 | C=CC(=O)N1CC[C@H](C#Cc2cccc(C(F)(F)F)c2)C1 (single isomer, unassigned) [Example 56, (R*)-1-(3-((3-(trifluoromethyl)phenyl)ethynyl)pyrrolidin-1-yl)prop-2-en-1-one] | A (A ≥ 75%)
7.00 to 8.00 | C=CC(=O)N1CCC(/C=C/c2ccc(C(F)(F)F)cc2)CC1 [Example 6] | B (75% > B ≥ 50%)
6.30 to 7.00 | C=CC(=O)N1CCC2(C=C(c3ccc(C(F)(F)F)cc3)CC2)C1 (single isomer, unassigned) [Example 95, 1-(7-(4-(trifluoromethyl)phenyl)-2-azaspiro[4.4]non-6-en-2-yl)prop-2-en-1-one] | B (75% > B ≥ 50%)
≥ 8.00 | C=CC(=O)N1CC(C/C=C/c2cc(C(F)(F)F)on2)C1 [Example 2, 1-{3-[(2E)-3-[5-(trifluoromethyl)-1,2-oxazol-3-yl]prop-2-en-1-yl]azetidin-1-yl}prop-2-en-1-one] | A (A ≥ 75%)
7.00 to 8.00 | C=CC(=O)N1CC[C@@H](/C=C\c2cccc(C(F)(F)F)c2)C1 (single isomer, unassigned) [Example 41, (S*,Z)-1-(3-(3-(trifluoromethyl)styryl)pyrrolidin-1-yl)prop-2-en-1-one] | A (A ≥ 75%)
7.00 to 8.00 | C=CC(=O)N1CCCC(C#Cc2ccc(C(F)(F)F)cc2)C1 (centres unmarked) [Example 76, 1-(3-((4-(trifluoromethyl)phenyl)ethynyl)piperidin-1-yl)prop-2-en-1-one] | A (A ≥ 75%)
7.00 to 8.00 | C=CC(=O)N1CC(/C=C\c2cc(C(F)(F)F)on2)C1 [Example 26, 1-{3-[(Z)-2-[5-(trifluoromethyl)-1,2-oxazol-3-yl]ethenyl]azetidin-1-yl}prop-2-en-1-one] | B (75% > B ≥ 50%)
< 6.30 | C=CC(=O)N1CCC(/C=C\c2cccc(C(F)(F)F)c2)CC1 [Example 55, (Z)-1-(4-(3-(trifluoromethyl)styryl)piperidin-1-yl)prop-2-en-1-one] | C (50% > C ≥ 2%)
